{"source": "patent US4163785A", "about": "“Benzothiazepine compounds and compositions” (Hexachimie, priority 1978, dated 1979)", "key": {"[1]": {"system": "passive cutaneous anaphylaxis reaction", "assay": "Passive cutaneous anaphylaxis reaction", "assay_type": "in vivo, rat", "settings": "for % inhibition: reduction of coloured surface; for ED50: Rattus norvegicus", "procedure": "The method used is that described by MOTA I in \"Immunology\" 1964, 7, Page 681. This method consists of sensitizing rats by 4 intradermal injections of 0.1 ml rat antiserum. The antiserum is obtained from animals treated with a mixture of ovalbumin and bordetella pertussis. 72 hours after sensitization, the product to be studied and 1 ml per rat (IV) of a 0.25% solution of Evans blue+5 mg/ml ovalbumin in an isotonic aqueous solution of […] sodium chloride are administered to the animals intravenously or intraperitoneally. Thirty minutes after this last injection, the animals are killed and one measures the surface area of each bruise corresponding to the point of injection of the antiserum. The results are expressed as a percentage reduction of the coloured surface. The results are given in Table III hereafter in which the results obtained with disodium cromoglycate (used intravenously) are also shown by way of comparison."}, "[2]": {"system": "histamine", "assay": "Action with regard to a LD100 of histamine (protection from mortality)", "assay_type": "in vivo, guinea pig", "settings": "for % protection: mortality caused by histamine, 1 hour", "procedure": "Male tricolour guinea pigs weighing 400 to 500 g receive the product studied intraperitoneally. 30 minutes later, 800 γ/kg histamine, or the LD 100 in physiological solution are injected intraveinously.\nThe animals are kept under observation for 1 hour."}, "[3]": {"system": "histamine", "assay": "Histamine bronchoconstrictor aerosol (antihistamine activity)", "assay_type": "in vivo, guinea pig", "settings": "for % protection: animals without apneic crisis within 5 minutes", "procedure": "Batches of 6 guinea pigs weighing from 200 to 250 g are exposed to an aerosol of 0.2% histamine in an aqueous solution, in a small chamber for 5 minutes. Two aerosols are used at an interval of 4 hours. The product tested is administered intraperitoneally 30 minutes before the use of the second aerosol."}}}
{"smiles": "O=C(O)c1cc(=O)c2c(OCC(O)COc3cccc4oc(C(=O)O)cc(=O)c34)cccc2o1", "note": "[Disodium cromoglycate, disodium cromoglycate]", "values": [{"measurement": "Mean Surface area", "setting": "[1]; IV, 0.15 mg/kg, control 31.77 ± 3.16", "value": "27.86 ± 3.82", "unit": "mm^2"}, {"measurement": "% inhibition", "setting": "[1]; IV, 0.15 mg/kg, T ns", "value": 12, "unit": "%"}, {"measurement": "Mean Surface area", "setting": "[1]; IV, 0.31 mg/kg, control 31.77 ± 3.16", "value": "30.5 ± 2.59", "unit": "mm^2"}, {"measurement": "% inhibition", "setting": "[1]; IV, 0.31 mg/kg, T ns", "value": 4, "unit": "%"}, {"measurement": "Mean Surface area", "setting": "[1]; IV, 0.625 mg/kg, control 72.46 ± 4.37", "value": "35.42 ± 5.02", "unit": "mm^2"}, {"measurement": "% inhibition", "setting": "[1]; IV, 0.625 mg/kg, T ***", "value": 51, "unit": "%"}, {"measurement": "Mean Surface area", "setting": "[1]; IV, 1.25 mg/kg, control 31.77 ± 3.16", "value": "2.30 ± 1.07", "unit": "mm^2"}, {"measurement": "% inhibition", "setting": "[1]; IV, 1.25 mg/kg, T ***", "value": 93, "unit": "%"}, {"measurement": "Mean Surface area", "setting": "[1]; IV, 2.5 mg/kg, control 31.77 ± 3.16", "value": "0.23 ± 0.23", "unit": "mm^2"}, {"measurement": "% inhibition", "setting": "[1]; IV, 2.5 mg/kg, T ***", "value": 99, "unit": "%"}, {"measurement": "ED50", "setting": "[1]; iv", "value": 0.64, "unit": "mg/kg"}]}
{"smiles": "CN1CCN(C2=Nc3ccccc3Sc3ncccc32)CC1", "note": "[Example 2, 5-(1'-methyl-4'-piperazinyl)pyrido[2,3-b][1,5]benzothiazepine]", "values": [{"measurement": "% protection", "setting": "[2]; 0.062 mg/kg intraperitoneally", "value": 0, "unit": "%"}, {"measurement": "% protection", "setting": "[2]; 0.125 mg/kg intraperitoneally", "value": 60, "unit": "%"}, {"measurement": "% protection", "setting": "[2]; 0.250 mg/kg intraperitoneally", "value": 100, "unit": "%"}, {"measurement": "ED50", "setting": "[2]; Cavia porcellus, ip, intraperitoneally, 800 γ/kg histamine (LD 100) intravenously", "value": 0.12, "unit": "mg/kg"}, {"measurement": "Mean Surface area", "setting": "[1]; I.P., 0.125 mg/kg, control 66.7 ± 2.62", "value": "54.4 ± 3.26", "unit": "mm^2"}, {"measurement": "% inhibition", "setting": "[1]; I.P., 0.125 mg/kg, T **", "value": 18, "unit": "%"}, {"measurement": "Mean Surface area", "setting": "[1]; I.P., 0.5 mg/kg, control 90.8 ± 5.92", "value": "46.3 ± 3.78", "unit": "mm^2"}, {"measurement": "% inhibition", "setting": "[1]; I.P., 0.5 mg/kg, T ***", "value": 49, "unit": "%"}, {"measurement": "Mean Surface area", "setting": "[1]; I.P., 1 mg/kg, control 66.7 ± 2.62", "value": "25.1 ± 3.45", "unit": "mm^2"}, {"measurement": "% inhibition", "setting": "[1]; I.P., 1 mg/kg, T ***", "value": 62, "unit": "%"}, {"measurement": "ED50", "setting": "[1]; ip, I.P.", "value": 0.57, "unit": "mg/kg"}, {"measurement": "% protection", "setting": "[3]; 0.062 mg/kg intraperitoneally", "value": 17, "unit": "%"}, {"measurement": "% protection", "setting": "[3]; 0.125 mg/kg intraperitoneally", "value": 33, "unit": "%"}, {"measurement": "% protection", "setting": "[3]; 0.250 mg/kg intraperitoneally", "value": 50, "unit": "%"}, {"measurement": "% protection", "setting": "[3]; 0.500 mg/kg intraperitoneally", "value": 100, "unit": "%"}, {"measurement": "ED50", "setting": "[3]; Cavia porcellus, ip, intraperitoneally, 0.2% histamine aerosol", "value": 0.155, "unit": "mg/kg"}]}
